In one data set the target is T1, Calcitonin receptor (Homo sapiens, UniProt P30988). Further: in other assays of this panel Not Active means under 50% inhibition at 10 µM.
T1 sequence (P30988 whole entry): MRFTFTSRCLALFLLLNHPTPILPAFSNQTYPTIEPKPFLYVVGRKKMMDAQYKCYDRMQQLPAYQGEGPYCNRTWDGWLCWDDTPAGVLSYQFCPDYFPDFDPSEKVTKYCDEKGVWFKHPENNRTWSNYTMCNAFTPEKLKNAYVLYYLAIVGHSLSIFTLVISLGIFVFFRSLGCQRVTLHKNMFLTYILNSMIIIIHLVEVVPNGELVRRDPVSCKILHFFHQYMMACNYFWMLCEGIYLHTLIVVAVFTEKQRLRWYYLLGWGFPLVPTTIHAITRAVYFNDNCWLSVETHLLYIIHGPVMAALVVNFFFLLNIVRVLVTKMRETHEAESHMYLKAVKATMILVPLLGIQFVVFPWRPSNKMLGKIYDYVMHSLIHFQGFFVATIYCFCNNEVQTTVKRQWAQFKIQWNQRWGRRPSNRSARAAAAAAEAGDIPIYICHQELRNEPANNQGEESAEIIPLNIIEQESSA
Type of data set: cell membranes, Membrane. The conditions noted are these: t47d.

Another data set deals with T2, Thromboxane-A synthase (Homo sapiens, UniProt P24557).
T2 sequence (P24557 whole entry): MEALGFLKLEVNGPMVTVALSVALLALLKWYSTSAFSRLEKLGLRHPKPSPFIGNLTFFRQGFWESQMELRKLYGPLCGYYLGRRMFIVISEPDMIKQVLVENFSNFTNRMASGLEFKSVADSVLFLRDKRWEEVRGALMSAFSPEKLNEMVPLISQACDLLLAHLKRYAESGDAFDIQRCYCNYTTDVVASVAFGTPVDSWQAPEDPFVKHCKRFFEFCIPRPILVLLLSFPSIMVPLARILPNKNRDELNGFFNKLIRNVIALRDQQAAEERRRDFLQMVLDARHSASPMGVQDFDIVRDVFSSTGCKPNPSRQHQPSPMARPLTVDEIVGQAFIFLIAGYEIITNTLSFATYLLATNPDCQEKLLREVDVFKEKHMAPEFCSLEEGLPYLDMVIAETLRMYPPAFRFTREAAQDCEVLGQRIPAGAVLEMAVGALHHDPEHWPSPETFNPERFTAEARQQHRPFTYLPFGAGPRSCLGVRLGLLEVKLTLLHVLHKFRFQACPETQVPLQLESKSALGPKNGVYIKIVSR
Kind of data set: biochemical. It counts as tissue-based, Platelet.

Data set [1] can be described thus: DRUGMATRIX: Atrial Natriuretic Factor (ANF) radioligand binding (ligand: [125I] ANF (rat)). It counts as cell membranes, Cavia porcellus, Dunkin-Hartley, Adrenal gland, Membrane. Conditions: Not Active = under 50% inhibition at 10 µM.
The target in the next data set is Cannabinoid receptor 1 (Homo sapiens, UniProt P21554). Type of data set: cell membranes, Membrane. Conditions: chem-1. Further: in other assays of this panel Not Active means under 50% inhibition at 10 µM.
Chain of Cannabinoid receptor 1 (P21554 whole entry): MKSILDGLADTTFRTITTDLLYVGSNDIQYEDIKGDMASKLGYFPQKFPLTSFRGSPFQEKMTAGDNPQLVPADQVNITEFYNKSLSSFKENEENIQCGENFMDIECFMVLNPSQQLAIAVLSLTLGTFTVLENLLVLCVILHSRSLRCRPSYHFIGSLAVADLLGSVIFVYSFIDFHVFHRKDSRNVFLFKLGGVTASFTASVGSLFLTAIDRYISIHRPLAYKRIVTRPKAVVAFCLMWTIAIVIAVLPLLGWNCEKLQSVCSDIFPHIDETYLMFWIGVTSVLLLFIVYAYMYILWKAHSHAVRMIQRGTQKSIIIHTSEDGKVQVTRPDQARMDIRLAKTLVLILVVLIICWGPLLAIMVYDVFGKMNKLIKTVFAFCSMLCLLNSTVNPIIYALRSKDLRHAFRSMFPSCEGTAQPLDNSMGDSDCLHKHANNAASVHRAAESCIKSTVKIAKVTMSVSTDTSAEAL
In data set [2] the target is T3, Muscarinic acetylcholine receptor M4 (Homo sapiens, UniProt P08173). Further: in other assays of this panel Not Active means under 50% inhibition at 10 µM.
T3 sequence (P08173 whole entry): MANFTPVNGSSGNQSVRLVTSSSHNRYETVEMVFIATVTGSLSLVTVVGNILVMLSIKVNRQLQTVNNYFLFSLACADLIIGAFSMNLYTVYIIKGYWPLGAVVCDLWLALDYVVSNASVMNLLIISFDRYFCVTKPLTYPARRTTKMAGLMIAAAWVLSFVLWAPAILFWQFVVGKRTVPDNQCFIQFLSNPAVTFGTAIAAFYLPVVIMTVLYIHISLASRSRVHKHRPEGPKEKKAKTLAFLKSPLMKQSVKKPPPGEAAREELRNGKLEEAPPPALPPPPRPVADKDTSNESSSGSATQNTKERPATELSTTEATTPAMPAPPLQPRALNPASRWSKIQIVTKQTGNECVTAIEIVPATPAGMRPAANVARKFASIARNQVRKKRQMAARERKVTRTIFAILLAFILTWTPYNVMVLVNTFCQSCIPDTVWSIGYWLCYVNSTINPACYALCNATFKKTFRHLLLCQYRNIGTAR
Type of data set: cell membranes, CHO-K1, Membrane. Conditions: cho-k1.

For another data set, the target named is Cytochrome P450 3A4 (Homo sapiens, UniProt P08684). Conditions: bti-tn-5b1-4. Further: in other assays of this panel Not Active means under 50% inhibition at 10 µM.
Chain of Cytochrome P450 3A4 (P08684 whole entry): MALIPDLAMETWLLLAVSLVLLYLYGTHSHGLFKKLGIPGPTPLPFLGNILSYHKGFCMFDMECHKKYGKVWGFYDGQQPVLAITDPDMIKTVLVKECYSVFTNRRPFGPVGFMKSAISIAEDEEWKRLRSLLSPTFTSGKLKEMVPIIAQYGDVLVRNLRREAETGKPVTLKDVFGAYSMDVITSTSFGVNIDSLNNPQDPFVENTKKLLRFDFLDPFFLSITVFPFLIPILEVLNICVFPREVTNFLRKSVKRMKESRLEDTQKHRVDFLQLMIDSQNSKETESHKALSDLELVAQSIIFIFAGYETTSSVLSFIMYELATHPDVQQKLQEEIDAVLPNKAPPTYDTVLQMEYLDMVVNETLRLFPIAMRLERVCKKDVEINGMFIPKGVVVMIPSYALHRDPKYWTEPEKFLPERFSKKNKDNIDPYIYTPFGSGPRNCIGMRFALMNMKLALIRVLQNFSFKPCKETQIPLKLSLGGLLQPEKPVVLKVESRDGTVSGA
In a further data set the target is Cytochrome P450 2E1 (Homo sapiens, UniProt P05181). Conditions: bti-tn-5b1-4. Further: in other assays of this panel Not Active means under 50% inhibition at 10 µM.
Chain of Cytochrome P450 2E1 (P05181 whole entry): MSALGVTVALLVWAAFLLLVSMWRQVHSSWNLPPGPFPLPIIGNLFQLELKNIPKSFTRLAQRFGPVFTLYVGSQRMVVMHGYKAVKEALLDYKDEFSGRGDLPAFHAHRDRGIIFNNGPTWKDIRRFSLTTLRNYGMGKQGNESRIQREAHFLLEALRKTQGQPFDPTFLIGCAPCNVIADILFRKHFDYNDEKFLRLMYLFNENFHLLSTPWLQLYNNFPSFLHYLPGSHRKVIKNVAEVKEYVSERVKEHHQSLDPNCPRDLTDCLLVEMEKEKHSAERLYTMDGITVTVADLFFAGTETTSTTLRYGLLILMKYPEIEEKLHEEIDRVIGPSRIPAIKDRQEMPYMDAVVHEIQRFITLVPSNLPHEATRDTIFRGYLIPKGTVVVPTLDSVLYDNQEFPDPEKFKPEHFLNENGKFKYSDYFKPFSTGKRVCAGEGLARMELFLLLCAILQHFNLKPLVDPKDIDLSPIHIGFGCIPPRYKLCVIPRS
Another data set addresses T4, Caspase-1 (Homo sapiens, UniProt P29466).
T4 sequence (P29466 whole entry): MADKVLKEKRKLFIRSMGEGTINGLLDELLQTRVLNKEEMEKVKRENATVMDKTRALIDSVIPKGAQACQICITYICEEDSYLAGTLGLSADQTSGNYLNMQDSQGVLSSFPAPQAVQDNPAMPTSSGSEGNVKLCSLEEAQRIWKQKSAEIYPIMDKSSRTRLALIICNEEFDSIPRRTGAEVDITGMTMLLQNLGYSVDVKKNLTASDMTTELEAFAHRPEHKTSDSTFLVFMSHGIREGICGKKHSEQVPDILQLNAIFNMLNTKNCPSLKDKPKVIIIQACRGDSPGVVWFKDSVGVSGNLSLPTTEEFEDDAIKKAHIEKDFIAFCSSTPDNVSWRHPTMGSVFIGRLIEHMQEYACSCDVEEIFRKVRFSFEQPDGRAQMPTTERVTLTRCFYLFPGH
Also noted: species or system Escherichia coli.

Drawing on ChEMBL document CHEMBL1909046, “DrugMatrix in vitro pharmacology data”, this text covers IC50 and Ki for 13 compounds.

Turning to `C[C@@H]1CN(c2c(F)c(N)c3c(=O)c(C(=O)O)cn(C4CC4)c3c2F)C[C@H](C)N1` [SPARFLOXACIN], the IC50 entry (on Calcitonin receptor; on Thromboxane-A synthase (platelet); in data set [1]; against Cannabinoid receptor 1; in data set [2]; against Cytochrome P450 3A4) was “Not Active” throughout. Besides, the concentration for half-maximal inhibition (IC50) result at Cytochrome P450 2E1 and against Caspase-1 was “Not Active” in each case. Also, the Ki result (in data set [1]; at Cytochrome P450 3A4; at Cytochrome P450 2E1) was “Not Active” each time.
`C=CCC1(C(C)CCC)C(=O)NC(=O)NC1=O` (stereo not drawn) [SECOBARBITAL]: the IC50 result (at Calcitonin receptor; against Thromboxane-A synthase (platelet); in data set [1]; at Cannabinoid receptor 1; in data set [2]; at Cytochrome P450 3A4) was “Not Active” throughout. In addition, the IC50 entry on Cytochrome P450 2E1 and against Caspase-1 was “Not Active” throughout. The Ki entry (in data set [1]; at Cytochrome P450 3A4; at Cytochrome P450 2E1) was “Not Active” each time.
Consider `N[C@@H](Cc1ccc(N(CCCl)CCCl)cc1)C(=O)O`, for which the IC50 result (at Calcitonin receptor; at Thromboxane-A synthase (platelet); in data set [1]; at Cannabinoid receptor 1; in data set [2]; on Cytochrome P450 3A4) was “Not Active” throughout. In addition, the IC50 entry at Cytochrome P450 2E1 and on Caspase-1 was “Not Active” each time. For the same compound, the Ki result (in data set [1]; at Cytochrome P450 3A4; at Cytochrome P450 2E1) was “Not Active” each time.
Take `N[C@@H]1[C@H]2CN(c3nc4c(cc3F)c(=O)c(C(=O)O)cn4-c3ccc(F)cc3F)C[C@@H]12` [TROVAFLOXACIN]: the IC50 entry on Calcitonin receptor is “Not Active”; at Thromboxane-A synthase (read-out: IC50) it was 4.02 µM; in data set [1], “Not Active”; on Cannabinoid receptor 1, “Not Active”; in data set [2] it was “Not Active”; on Cytochrome P450 3A4, “Not Active”. In addition, the IC50 result against Cytochrome P450 2E1 and at Caspase-1 was “Not Active” throughout. For the same compound, the Ki entry (in data set [1]; at Cytochrome P450 3A4; at Cytochrome P450 2E1) was “Not Active” each time.
In the case of `COc1c(C)c2c(c(O)c1C/C=C(\C)CCC(=O)O)C(=O)OC2` [MYCOPHENOLIC ACID], the IC50 result (at Calcitonin receptor; on Thromboxane-A synthase (platelet); in data set [1]; on Cannabinoid receptor 1; in data set [2]; against Cytochrome P450 3A4) was “Not Active” throughout. The IC50 entry against Cytochrome P450 2E1 and against Caspase-1 was “Not Active” throughout. Also, the Ki entry (in data set [1]; at Cytochrome P450 3A4; on Cytochrome P450 2E1) was “Not Active” in each case.
Take `CCCOc1ccccc1-c1nc2nn[nH]c2c(=O)[nH]1` [ZAPRINAST]: the IC50 entry (on Calcitonin receptor; on Thromboxane-A synthase (platelet); in data set [1]; at Cannabinoid receptor 1; in data set [2]; against Cytochrome P450 3A4) was “Not Active” in each case. Besides, the IC50 entry at Cytochrome P450 2E1 and on Caspase-1 was “Not Active” in each case. The Ki entry (in data set [1]; at Cytochrome P450 3A4; on Cytochrome P450 2E1) was “Not Active” throughout.
As to `Nc1nc2nc[nH]c2c(=S)[nH]1` [THIOGUANINE], the IC50 entry (on Calcitonin receptor; at Thromboxane-A synthase (platelet); in data set [1]; against Cannabinoid receptor 1; in data set [2]; at Cytochrome P450 3A4) was “Not Active” each time. Moreover, the 50% inhibitory concentration (IC50) entry at Cytochrome P450 2E1 and against Caspase-1 was “Not Active” each time. Moreover, the Ki entry (in data set [1]; on Cytochrome P450 3A4; on Cytochrome P450 2E1) was “Not Active” in each case.
Take `Cc1c(C)c2c(c(C)c1O)CCC(C)(COc1ccc(CC3SC(=O)NC3=O)cc1)O2` (stereo not drawn) [TROGLITAZONE]: the IC50 entry at Calcitonin receptor is “Not Active”; at Thromboxane-A synthase (read-out: IC50), 2.97 µM; in data set [1] it was “Not Active”; at Cannabinoid receptor 1 it was “Not Active”; in data set [2] it was “Not Active”; against Cytochrome P450 3A4 it was “Not Active”. Moreover, the IC50 entry against Cytochrome P450 2E1 and against Caspase-1 was “Not Active” throughout. Further, the Ki result (in data set [1]; at Cytochrome P450 3A4; on Cytochrome P450 2E1) was “Not Active” each time.
Regarding `COc1nc(C)nc(Cl)c1NC1=NCCN1` [MOXONIDINE], the IC50 result (on Calcitonin receptor; against Thromboxane-A synthase (platelet); in data set [1]; at Cannabinoid receptor 1; in data set [2]; against Cytochrome P450 3A4) was “Not Active” in each case. Moreover, the IC50 result on Cytochrome P450 2E1 and on Caspase-1 was “Not Active” each time. Also, the Ki entry (in data set [1]; at Cytochrome P450 3A4; on Cytochrome P450 2E1) was “Not Active” in each case.
On to `O=NN(CCCl)C(=O)NC1CCCCC1` [LOMUSTINE], for which the IC50 entry (at Calcitonin receptor; on Thromboxane-A synthase (platelet); in data set [1]; against Cannabinoid receptor 1; in data set [2]; against Cytochrome P450 3A4) was “Not Active” throughout. For the same compound, the IC50 entry against Cytochrome P450 2E1 and against Caspase-1 was “Not Active” each time. Also, the Ki result (in data set [1]; on Cytochrome P450 3A4; at Cytochrome P450 2E1) was “Not Active” each time.
`O=c1ncn2nc(Sc3ccc(F)cc3F)ccc2c1-c1c(Cl)cccc1Cl` [NEFLAMAPIMOD]: the IC50 result (on Calcitonin receptor; on Thromboxane-A synthase (platelet); in data set [1]; at Cannabinoid receptor 1; in data set [2]; at Cytochrome P450 3A4) was “Not Active” throughout. For the same compound, the IC50 result against Cytochrome P450 2E1 and against Caspase-1 was “Not Active” throughout. The Ki result (in data set [1]; at Cytochrome P450 3A4; on Cytochrome P450 2E1) was “Not Active” throughout.
In the case of `CC[C@]1(O)C[C@H]2CN(CCc3c([nH]c4ccccc34)[C@@](C(=O)OC)(c3cc4c(cc3OC)N(C=O)[C@H]3[C@@](O)(C(=O)OC)[C@H](OC(C)=O)[C@]5(CC)C=CCN6CC[C@]43[C@@H]65)C2)C1` [VINCRISTINE], the IC50 entry (on Calcitonin receptor; against Thromboxane-A synthase (platelet); in data set [1]; at Cannabinoid receptor 1; in data set [2]; on Cytochrome P450 3A4) was “Not Active” in each case. Also, the IC50 entry against Cytochrome P450 2E1 and on Caspase-1 was “Not Active” throughout. Further, the Ki result (in data set [1]; at Cytochrome P450 3A4; on Cytochrome P450 2E1) was “Not Active” in each case.
`CSc1ccc(/C=C2/C(C)=C(CC(=O)O)c3cc(F)ccc32)cc1` [SULINDAC SULFIDE]: the IC50 result (on Calcitonin receptor; on Thromboxane-A synthase (platelet); in data set [1]; against Cannabinoid receptor 1; in data set [2]; against Cytochrome P450 3A4) was “Not Active” in each case. The IC50 entry on Cytochrome P450 2E1 and against Caspase-1 was “Not Active” throughout. In addition, the Ki entry (in data set [1]; on Cytochrome P450 3A4; on Cytochrome P450 2E1) was “Not Active” each time.

As usually defined, the IC50 is the midpoint of a concentration-inhibition curve.
